Reference: patent US20190111016A1, “METHODS OF TREATING MUSCLE AND LIVER DISORDERS” (The Regents of the University of California, priority 2016, published 2019)
Structures can show the parent of a compound that is named as a salt.

Key:
[1] = system: healthy human fibroblast cell line AG09429; assay: qPCR of TFAM and mitochondrial complex subunit mRNA in DMF-treated human fibroblasts; type: cell-based; settings: for average induction of all the mitochondrial complexes (subunit mRNA) compared to vehicle / expression of mitochondrial biogenesis marker TFAM compared to vehicle control: 48 hours
Protocol: (§1) The healthy human fibroblast cell line AG09429 (Coriell Institute, Camden, N.J., USA) was maintained at 37° C. in a humidified atmosphere with 5% CO2. DMEM (Corning, Inc., Corning, N.Y., USA) supplemented with 10% fetal bovine serum (JR-Scientific, Woodland, Calif., USA), 1× Penicillin-Streptomycin Solution (Corning, Inc., Corning, N.Y., USA) was used as growth media. Media was changed every two days.
(§2) The human fibroblasts were plated in a 12-well format at 0.1×10^6 cells per well. The cells were incubated with 0.1% DMSO as vehicle control or 3-30 μM of dimethyl fumarate (Sigma-Aldrich, St. Louis, Mo., USA) dissolved in DMSO. Total RNA and DNA were extracted following a 48-hour incubation period.
(§3) Total RNA was extracted from human fibroblast cells and PBMCs from whole blood using RNeasy plus mini kit (Qiagen, Valencia, Calif.) and RIboPure RNA Purification Kit (ThermoFisher Scientific, Waltham, Mass., USA), respectively following manufacturers instruction. RNA quantity and quality was measured by a NanoDrop 2000c Spectrophotometer (Thermo Scientific, Waltham, Mass., USA).
(§4) cDNA was synthesized from mRNA with iScript cDNA Synthesis Kit (Bio-Rad Laboratories, Hercules, Calif., USA) per manufacturer's instruction in a C1000 Touch Thermal Cycler (Bio-Rad Laboratories, Hercules, Calif., USA). A SensiFAST SYBR No-ROX Kit (Bioline, Taunton, Mass., USA) was used to perform qPCR on the synthesized cDNA in a Roche Lightcycler 480 (Roche Diagnostics, Indianapolis, Ind., USA). The second derivative of the amplification curve was used to determine the cycle threshold, and the data were analyzed by a delta delta CT calculation.
To elucidate whether increased mitochondrial proliferation affects the abundance of the ETC mitochondrial complexes, qPCR analysis was performed to quantify the mRNA expression of numerous complex subunits: complex 1 subunits MT-ND2 and MT-ND6, complex 2 subunits SDHA and SDHB, […], and complex 5 subunits ATP5B and MT-ATP6 [Table 1]. […] Taken together, human fibroblast cells increased mitochondrial biogenesis measured by mtDNA copy number, mitochondrial proliferator marker TFAM expression and mitochondrial complex expression.

human fibroblasts = assay: Oxygen consumption rate in DMF-treated fibroblasts by Seahorse XF Analyzer; type: cell-based; settings: 48 hours
Protocol: Fibroblast cell lines were seeded at a density of 60,000 cells/well in 200 μL of culture medium in a 24-well seahorse tissue culture plate (Seahorse Biosciences, Billerica, Mass., USA). Following a 24-hour incubation, the media was replaced and incubated with 200 μL of 0.1% DMSO or 3 μM, 10 μM and 30 μM dimethyl fumarate in 0.1% DMSO. Prior to reading the oxygen consumption, the medium was changed to unbuffered DMEM without phenol red (Corning, Inc., Corning, N.Y., USA), 10% fetal bovine serum (JR-Scientific, Woodland, Calif., USA), […] glutamax, […] sodium pyruvate, 25 mM glucose (Invitrogen, Waltham, Mass., USA) and was adjusted to pH 7.4. Cells were pre-equilibrated for 20 min; oxygen consumption rate (OCR) and proton production rate (PPR) were recorded with the Seahorse XF-24 after sequential addition of oligomycin (1 ug/ml), FCCP (10 μM) and a combination of antimycin A (1 μM) and rotenone (1 μM) (Sigma-Aldrich, St. Louis, Mo., USA). Total protein in each well was measured and protein concentration was used to normalize the readings.
To elucidate the bioenergetic effects of DMF-dependent increases in mitochondrial copy number and mitochondrial complex expression in human fibroblasts, oxygen consumption rate (OCR) was measured. Human fibroblasts were treated with 0.1% DMSO, 3 μM, 10 μM or 30 μM DMF for 48 hours, and oxygen consumption rate (OCR) was sequentially measured in the presence of oligomycin (complex 5 inhibitor), FCCP (mitochondrial uncoupler), and rotenone/antimycin A (Complex 1/3 inhibitor) [FIG. 2A]. […] Consistent with the idea that DMF increases mitochondrial copy number and mitochondrial complex expression; the effects of DMF are nullified in the presence of oligomycin and rotenone/antimycin A, which inhibits the mitochondrial electron transport chain that is responsible for mitochondrial oxygen consumption.

Nrf2 = assay: DMF treatment of Nrf2 siRNA knockdown human fibroblasts, qPCR; type: cell-based; settings: then DMF 48 hours
Protocol: (§5) Fibroblast cells were seeded in six-well plates at 0.2×10^6 cells per well and transfected with negative control siRNA (cat. 12935300, Thermo-Fisher, Waltham, Mass., USA), pooled Nrf2 siRNA (cat. HSS107130, HSS181505, HSS181506, Thermo-Fisher, Waltham, Mass., USA) or pooled HCAR2 siRNA (cat. L-006688-02-0005, Dharmacon, Lafayette, Colo., USA) using Lipofectamine RNAiMAX following manufacturer's instruction. After a 48-hour incubation, subsequent drug treatment was conducted with the cells.
as §4
(§6) DMF is known to mediate antioxidant cellular defense by Nrf2 activation, and it suppresses inflammatory signaling by binding to and activating HCAR2 (11, 15). To further understand the Nrf2 and HCAR2 dependent effects of DMF on mitochondrial biogenesis, we analyzed changes in mitochondrial proliferation in Nrf2 siRNA knockdown and HCAR2 siRNA knockdown fibroblasts.

[2] = system: healthy human fibroblast cell line AG09429; assay: mtDNA copy number (mtDNA/nDNA, MT-TL1/B2M) by qPCR in DMF-treated human fibroblasts; type: cell-based; settings: 48 hours
Protocol: as §1, §2
(§7) Total DNA was extracted from human fibroblast and mouse tissues using DNeasy plus mini kit and DNeasy blood & tissue kit (Qiagen, Valencia, Calif., USA), respectively, following manufacturer's instruction. DNA was quantified by a NanoDrop 2000c Spectrophotometer (Thermo Scientific, Waltham, Mass., USA).
as §4
Healthy human fibroblast cells were treated with 0.1% DMSO (vehicle), 3 μM, 10 μM or 30 μM DMF for 48 hours. Mitochondrial DNA (mtDNA) copy number was analyzed from total DNA isolates by measuring the ratio of mitochondrial to nuclear DNA (mtDNA/nDNA). Primers used to amplify mitochondrial DNA and nuclear DNA by qPCR were mitochondrially-encoded tRNA leucine 1 (MT-TL1) and Beta 2 microglobulin (B2M) respectively. […]

C57BL/6 wild-type mice [3] = assay: mtDNA copy number (mt-Nd1/Cftr) by qPCR in tissues of DMF-dosed mice; type: in vivo, mouse; settings: 10 mg/kg DMF i.p. daily, two weeks
Protocol: (§8) C57BL/6 wild-type mice were housed in a vivarium maintained at 22° C.-24° C. and 40%-60% relative humidity with a 12-hour light/12-hour dark cycle. All experimental procedures were approved by the University of California Institutional Animal Care and Use Committee.
(§9) The stock dimethyl fumarate solution was made by dissolving 50 mg/ml of DMF into DMSO. Prior to injection, 0.5 mg/ml of working DMF solution (1:100 dilution) was made by diluting the stock solution into phosphate-buffered saline with 5% Tween-20 and 5% Polyethylene glycol (Sigma-Aldrich, St. Louis, Mo., USA). The mice were injected intraperitoneally every day for 14 days with 10 mg/kg of DMF.
(§10) The mice were euthanized with CO2 followed by cervical dislocation and tissues were immediately removed then flash frozen with liquid nitrogen. Samples were stored in −80° C. until utilized for experiments.
as §7, §4
(§11) To understand whether the DMF-dependent mitochondrial biogenesis is only applicable to the human fibroblast cells, we examined the effects of DMF on wild type C57BL/6 mice. The mice were dosed with 10 mg/kg DMF daily, and skeletal muscle, cerebellum, liver, and heart tissues were collected after two weeks of treatment We utilized qPCR to analyze, mtDNA copy number as ratio of mt-Nd1 to Cftr and mitochondrial complex expression, in these tissues.

MS patients [4] = assay: mtDNA copy number (MT-TL1/B2M) by qPCR in PBMCs of MS patients before and after DMF treatment; type: in vivo, human; settings: 3 months DMF treatment
Excerpt: (§12) The local Ethics Committee of the University Federico II of Naples, approved the study. Patients were recruited from the Multiple Sclerosis Center of the Federico II University of Naples. All patients gave written informed consent before any activity linked to the study was started. Healthy controls were recruited at the clinic through students and site personnel. The study included 12 MS patients and 11 healthy individuals. Samples were obtained on the day before and after 3 months of continuous DMF treatment. Whole blood was collected in EDTA containing Leucosep® tubes (Greiner bio-one, Frickenhausen, Germany) and frozen at −80° C. until analysis. PBMCs were isolated from 30 mL of EDTA anticoagulated whole blood for RNA extraction.
as §4
DMF is a FDA approved drug, currently being used to treat adult patients with relapsing form of MS. […]

MS patients [5] = assay: qPCR of mitochondrial complex subunit expression in PBMCs of MS patients before and after DMF treatment; type: in vivo, human
Excerpt: as §12, §3, §4
DMF is a FDA approved drug, currently being used to treat adult patients with relapsing form of MS. To confirm whether DMF is contributing to mitochondrial biogenesis when given to human patients, we used qPCR to study mitochondrial DNA copy number and mitochondrial complex subunit expression in peripheral blood lymphocytes isolated from 11 MS patients at baseline and those same patients 3 months after DMF treatment, and 10 controls. We see significant increase in mitochondrial DNA copy number by 71% (p<0.0075, n=11) in MS patients' treated with DMF for 3 months compared to its own baseline [FIG. 4A].

HCAR2 = assay: DMF treatment of HCAR2 siRNA knockdown human fibroblasts, qPCR; type: cell-based; settings: HCAR2 siRNA 48 hours, then DMF 48 hours
Protocol: as §5
as §4, with “A SensiFAST SYBR No-ROX Kit (Bioline, Taunton, Mass., USA) was used to perform qPCR on the synthesized cDNA in a Roche Lightcycler 480 (Roche Diagnostics, Indianapolis, Ind., USA).” left out
as §6

C57BL/6 wild-type mice [6] = assay: qPCR of mitochondrial complex subunit expression in tissues of DMF-dosed mice; type: in vivo, mouse; settings: 10 mg/kg DMF i.p. daily, two weeks
Protocol: as §8, §9, §10, §4, §11

[7] = MS patients, 3 months DMF treatment

Structure (SMILES): COC(=O)/C=C/C(=O)OC [DMF, dimethyl fumarate]
- average induction of all the mitochondrial complexes (subunit mRNA) compared to vehicle ([1]; 10 μM DMF): 1.42 fold
- expression of mitochondrial biogenesis marker TFAM compared to vehicle control ([1]; 10 μM DMF): increased
- average induction of all the mitochondrial complexes (subunit mRNA) compared to vehicle ([1]; 30 μM DMF): 2.65 fold
- expression of mitochondrial biogenesis marker TFAM compared to vehicle control ([1]; 30 μM DMF): increased
- expression of complex 5 subunits in response to DMF compared to other complex subunits ([1]; DMF 48 hours): less increased
- maximal OCR after FCCP injection, relative increase compared to vehicle control (human fibroblasts; 3 μM DMF): 1.20 fold
- basal OCR, relative increase compared to vehicle control (human fibroblasts; 10 μM DMF): 1.59 fold
- maximal OCR after FCCP injection, relative increase compared to vehicle control (human fibroblasts; 10 μM DMF): 1.35 fold
- basal OCR, relative increase compared to vehicle control (human fibroblasts; 30 μM DMF): 1.66 fold
- maximal OCR after FCCP injection, relative increase compared to vehicle control (human fibroblasts; 30 μM DMF): 1.47 fold
- OCR in the presence of oligomycin and rotenone/antimycin A, DMF groups vs vehicle control (human fibroblasts; 3, 10, 30 μM DMF): not significantly different
- expression of Nrf2, NQO1 and mtDNA copy number, siNrf2+DMF compared to siNrf2 cells (Nrf2; Nrf2 siRNA 48 hours): significantly increases
- induction of TFAM and NRF1 in siNrf2+DMF (Nrf2; Nrf2 siRNA 48 hours): no significant induction
- mitochondrial complex expression in siNrf2+DMF cells (exception: complex 4) (Nrf2; Nrf2 siRNA 48 hours): general reduction
- Nrf2, NQO1, TFAM, NRF1 and mtDNA copy number, siCNT+DMF compared to siCNT (Nrf2; control siRNA 48 hours): significant induction
- change in mtDNA copy number compared to vehicle control ([2]; 3 μM DMF): no changes
- increase in mtDNA copy number compared to vehicle control ([2]; 10 μM DMF): 1.51 fold
- increase in mtDNA copy number compared to vehicle control ([2]; 30 μM DMF): 1.75 fold
- increase in mtDNA copy number (C57BL/6 wild-type mice [3]; cerebellum): 1.29 fold
- change in mtDNA copy number (C57BL/6 wild-type mice [3]; heart): no significant change
- increase in mtDNA copy number (C57BL/6 wild-type mice [3]; liver): 1.34 fold
- increase in mtDNA copy number (C57BL/6 wild-type mice [3]; skeletal muscle): 1.45 fold
- mitochondrial DNA copy number compared to healthy control group (MS patients [4]): back to healthy control level
- increase in mitochondrial DNA copy number compared to own baseline (MS patients [4]; peripheral blood lymphocytes): 71%
- recovery in average mitochondrial gene expression (mt-ND6, mt-CYB, mt-CO2, mt-ATP6) (MS patients [5]; MS patients following 3 months DMF treatment, relative to healthy individuals): 88%
- increase in mt-ATP6 (complex 5) expression normalized to own baseline (MS patients [5]; [7]): 3.74 fold
- increase in mt-CO2 (complex 4) expression normalized to own baseline (MS patients [5]; [7]): 2.34 fold
- increase in mt-CYB (complex 3) expression normalized to own baseline (MS patients [5]; [7]): 2.87 fold
- increase in mt-ND6 (complex 1) expression normalized to own baseline (MS patients [5]; [7]): 3.13 fold
- inducibility of NRF1, mtDNA copy number and mitochondrial complex 2-5 subunit gene expression, siHCAR2+DMF compared to siCTL+DMF (HCAR2): no significant difference
- inducibility of complex 1 subunit MT-ND2 by DMF when HCAR2 is knocked down (HCAR2): uninducible
- increase in mt-Atp6 (complex 5) expression (C57BL/6 wild-type mice [6]; cerebellar tissue): 1.82 fold
- increase in mt-Co1 (complex 4) expression (C57BL/6 wild-type mice [6]; cerebellar tissue): 1.92 fold
- induction of mitochondrial complexes (C57BL/6 wild-type mice [6]; liver or heart tissues): more minor
- increase in mt-Atp6 (complex 5) expression (C57BL/6 wild-type mice [6]; skeletal muscle): 1.77 fold
- increase in mt-Co1 (complex 4) expression (C57BL/6 wild-type mice [6]; skeletal muscle): 2.38 fold
- increase in mt-Nd2 expression (C57BL/6 wild-type mice [6]; skeletal muscle): 4.68 fold
